Experiment in all cases: combination Emax (second highest fraction inhibited in the dose matrix, 72 h); higher = more inhibition; extreme values may be limits of the assay
One experiment deals with HCC70 (Breast Carcinoma). The essentials: (§1)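 Bliss excess equals the observed combination effect minus the expected value EA + EB − EA·EB, where EA and EB are the effects of each agent alone. Combination Emax is the second-highest inhibition within the matrix. Inhibition was scaled from CellTiter-Glo 2.0 luminescence, with 0 set by vehicle wells and 1 by blank wells, after 72 hours of two-drug dosing of cells plated in 1536-well plates.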

In experiment [1] the test system is NCI-H1651 (Lung Adenocarcinoma). The essentials:
as §1

A further experiment has as its system EB2 (Burkitt's Lymphoma). A digest of the protocol:
as §1

In a further experiment the test system is IM-9 (Non-Cancerous). A digest of the protocol:
as §1

The subject of experiment [2] is 22RV1 (Prostate Carcinoma). The essentials: as §1
Experiment [3] deals with NCI-H441 (Lung Adenocarcinoma). The essentials: as §1
The subject of another experiment is WM1552C (Melanoma). The essentials:
as §1

The test system of experiment [4] is CGTH-W-1 (Thyroid Gland Carcinoma). A digest of the protocol:
as §1

The subject of a further experiment is EW-7 (Ewing's Sarcoma). A digest of the protocol: as §1
The next experiment concerns 769-P (Kidney Carcinoma). The essentials:
as §1

The test system of experiment [5] is MHH-ES-1 (Ewing's Sarcoma). A digest of the protocol:
as §1

Experiment [6] deals with SW620 (Colorectal Carcinoma). The essentials:
as §1

The test system of experiment [7] is A2780 (Ovarian Carcinoma). The essentials: as §1
The test system of experiment [8] is LU-165 (Small Cell Lung Carcinoma). A digest of the protocol:
as §1

Experiment [9] concerns JHH-2 (Hepatocellular Carcinoma). The essentials: as §1
Experiment [10] relates to NCI-H2087 (Lung Adenocarcinoma). A digest of the protocol:
as §1

For experiment [11], the system named is HCC1395 (Breast Carcinoma). The essentials: as §1
Experiment [12] concerns JHU-022 (Oral Cavity Carcinoma). The essentials: as §1
The subject of experiment [13] is NCI-H1703 (Squamous Cell Lung Carcinoma). A digest of the protocol: as §1
Experiment [14] has as its system SK-HEP-1 (Hepatocellular Carcinoma). A digest of the protocol:
as §1

Consider `Cc1cc2ncnn2cc1Nc1ncc2c(n1)n(C1CCOCC1)c(=O)n2C` [AZD7648] + CCN(CCO)CCCOc1ccc2c(Nc3cc(CC(=O)Nc4cccc(F)c4)[nH]n3)ncnc2c1 [AZD2811] (first compound max 10 µM, 7x7, partner max 1 µM), for which the “combination Emax” value amounted to 0.629 in the experiment on HCC70 (Breast Carcinoma); 0.264 in experiment [1]; 0.473 in the experiment on EB2 (Burkitt's Lymphoma); 0.943 with IM-9 (Non-Cancerous); 0.396 in experiment [2]; 0.309 in experiment [3]. Moreover, the “combination Emax” value was 0.43 in the experiment with WM1552C (Melanoma); 0.338 in [4]; 0.596 in the experiment with EW-7 (Ewing's Sarcoma); 0.416 with 769-P (Kidney Carcinoma); 0.54 in experiment [5]; 0.248 in experiment [6]. For the same compound, the “combination Emax” value in experiment [7] came out at 0.686; in experiment [8], 0.288; in experiment [9] it was 0.446; in [10] it was 0.215; in experiment [11], 0.363; in experiment [12] it was 0.4. The “combination Emax” value is 0.688 in experiment [13] and 0.395 in experiment [14].
Take `CN(CCO)CC[C@H](CSc1ccccc1)Nc1ccc(S(=O)(=O)NC(=O)c2ccc(N3CCC([C@@H](O)c4ccccc4-c4ccc(Cl)cc4)CC3)cc2)cc1S(=O)(=O)C(F)(F)F` [AZD4320] + C1CN(CCC1(C(=O)N[C@@H](CCO)C2=CC=C(C=C2)Cl)N)C3=NC=NC4=C3C=CN4 [Capivasertib] (first compound max 1 µM, 7x7, partner max 3 µM): the “combination Emax” value in the experiment on HCC70 (Breast Carcinoma) is 0.813; in [1], 0.193; in the experiment with EB2 (Burkitt's Lymphoma) it was 0.534; with IM-9 (Non-Cancerous), 0.586; in experiment [2], 0.471; in [3] it was 0.173. In addition, the “combination Emax” value in the experiment with WM1552C (Melanoma) was determined as 0.183; in experiment [4], 0.19; with EW-7 (Ewing's Sarcoma), 0.861; in the experiment on 769-P (Kidney Carcinoma), 0.576; in experiment [5], 0.48; in [6] it was 0.137. Besides, the “combination Emax” value in [7] is 0.515; in experiment [8] it was 0.581; in experiment [9], 0.539; in [10], 0.232; in [11], 0.408; in experiment [12] it was 0.308. In addition, the “combination Emax” value amounted to 0.402 in [13] and 0.245 in [14].
For `CN(CCO)CC[C@H](CSc1ccccc1)Nc1ccc(S(=O)(=O)NC(=O)c2ccc(N3CCC([C@@H](O)c4ccccc4-c4ccc(Cl)cc4)CC3)cc2)cc1S(=O)(=O)C(F)(F)F` [AZD4320] + C=CCn1c(=O)c2cnc(Nc3ccc(N4CCN(C)CC4)cc3)nc2n1-c1cccc(C(C)(C)O)n1 [AZD1775] (first compound max 1 µM, partner max 1 µM), the “combination Emax” value with HCC70 (Breast Carcinoma) worked out at 0.607; in experiment [1], 0.746; with EB2 (Burkitt's Lymphoma) it was 0.866; in the experiment on IM-9 (Non-Cancerous), 1; in experiment [2], 0.321; in experiment [3], 0.552. In addition, the “combination Emax” value in the experiment on WM1552C (Melanoma) amounted to 0.471; in experiment [4], 0.106; in the experiment on EW-7 (Ewing's Sarcoma) it was 1; in the experiment on 769-P (Kidney Carcinoma) it was 0.962; in experiment [5] it was 0.947; in [6] it was 0.931. Also, the “combination Emax” value in [7] came to 0.666; in experiment [8] it was 0.681; in experiment [9], 0.604; in experiment [10] it was 0.68; in experiment [11] it was 0.69; in experiment [12], 0.579. The “combination Emax” value in experiment [13] worked out at 0.972; in [14], 0.327.
As for `CN(CCO)CC[C@H](CSc1ccccc1)Nc1ccc(S(=O)(=O)NC(=O)c2ccc(N3CCC([C@@H](O)c4ccccc4-c4ccc(Cl)cc4)CC3)cc2)cc1S(=O)(=O)C(F)(F)F` [AZD4320] + C[C@@H](Nc1cc(F)cc(F)c1)c1cc(C(=O)N(C)C)cc2c(=O)cc(N3CCOCC3)oc12 [AZD8186] (first compound max 1 µM, 7x7, partner max 3 µM), the “combination Emax” value worked out at 0.781 with HCC70 (Breast Carcinoma); 0.411 in experiment [1]; 0.536 in the experiment with EB2 (Burkitt's Lymphoma); 0.972 in the experiment with IM-9 (Non-Cancerous); 0.456 in experiment [2]; 0.573 in experiment [3]. Moreover, the “combination Emax” value in the experiment with WM1552C (Melanoma) stood at 0.424; in experiment [4] it was 0.476; with EW-7 (Ewing's Sarcoma), 0.947; with 769-P (Kidney Carcinoma) it was 0.341; in [5], 0.946; in experiment [6], 0.84. Besides, the “combination Emax” value came out at 0.543 in experiment [7]; 0.717 in experiment [8]; 0.77 in experiment [9]; 0.773 in experiment [10]; 0.476 in [11]; 0.446 in experiment [12]. The “combination Emax” value in experiment [13] stood at 0.531; in experiment [14], 0.778.
As to `CC(=O)c1c(C)c2cnc(Nc3ccc(N4CCNCC4)cn3)nc2n(C2CCCC2)c1=O` [Palbociclib] + CN(CC[C@H](CSC1=CC=CC=C1)NC2=C(C=C(C=C2)S(=O)(=O)NC(=O)C3=CC=C(C=C3)N4CCC(CC4)[C@H](C5=CC=CC=C5C6=CC=C(C=C6)Cl)O)S(=O)(=O)C(F)(F)F)CCO [AZD4320] (first compound max 10 µM, 7x7, partner max 1 µM), the “combination Emax” value in [5] amounted to 0.835; in experiment [6] it was 0.693.
In the same order, the values of `C[C@@H](c1ccc2nccn2c1)n1nnc2ncc(-c3cnn(C)c3)nc21` [Savolitinib] + CN(CC[C@H](CSC1=CC=CC=C1)NC2=C(C=C(C=C2)S(=O)(=O)NC(=O)C3=CC=C(C=C3)N4CCC(CC4)[C@H](C5=CC=CC=C5C6=CC=C(C=C6)Cl)O)S(=O)(=O)C(F)(F)F)CCO [AZD4320] (first compound max 1 µM, 7x7, partner max 1 µM) are 0.404 and 0.207.
The like results for `COc1nnc2ccc(N3CCC(c4ccc(OCCN5CCN(C)C(=O)[C@H]5C)cc4)CC3)nn12` [AZD5153] + CN(CC[C@H](CSC1=CC=CC=C1)NC2=C(C=C(C=C2)S(=O)(=O)NC(=O)C3=CC=C(C=C3)N4CCC(CC4)[C@H](C5=CC=CC=C5C6=CC=C(C=C6)Cl)O)S(=O)(=O)C(F)(F)F)CCO [AZD4320] (first compound max 1 µM, 7x7, partner max 1 µM) were, in that order, 0.74 and 0.84.

The values above are taken from the supplement of paper PMC11061612.
